Measurements published in patent US20170368082A1, “FORMULATIONS OF BRINCIDOFOVIR” (priority 2016, published 2017).
Where two headings read alike, the source gives them in different places.

Assays:
rat whole blood = experiment: Hemolytic potential, cyanmethemoglobin method, rat whole blood; type: cell-based; conditions: for Estimated % Hemolysis: based on normal rat hemoglobin 13 g/dL; for Mean HgB Concentration: interference control, Phase 1
Method: Each concentration of test item for the rat was mixed separately in a 1:4 ratio with rat whole blood while each concentration of test item for the human was mixed separately in a 1:4 ratio with human whole blood. These samples plus control samples [vehicle control (vehicle+whole blood, 1 for rat and 1 for humans), positive control (1% Saponin+whole blood), untreated whole blood control and negative control (saline+whole blood) were analyzed for hemolysis (supernatant hemoglobin concentration).
(§1) The rat and human whole blood samples were incubated in test or control items at 37±1° C. for 20 minutes and then immediately (within 2 minutes) centrifuged at 3500±100 rpm (2740 g) at room temperature for 5-10 minutes. The supernatant was extracted and subjected to a hemoglobin analysis using the cyanmethemoglobin method employed on the Siemens Advia 120 hematology analyzer. If the test item has a potential for causing hemolysis, then hemoglobin released from lysed red blood cells into the plasma supernatant can be quantified via the reaction of heme iron in solution being oxidized from a ferrous to a ferric state in the presence of potassium cyanide. The reaction results in the formation of methemoglobin, which then combines with cyanide to form a stable cyanmethemoglobin. When measured spectrophotometrically at 546 nm the absorbance of cyanmethemoglobin follows Beer's Law and is directly proportional to the concentration of hemoglobin released into solution.
as §1, with “Without wishing to be bound by theory, if” for “If”

[1] = Plasma BCV PK following single dose oral tablet administration (Table 105); type: in vivo; conditions: human; for AUC(0-inf) / Cmax: plasma, po
[2] = 7-day dose range-finding study, 2-hour IV infusion (Phase 2): toxicity; type: in vivo, Sprague-Dawley CD rats
Method: For Phase 2, Sprague-Dawley CD® rats (5/sex/group) were dosed with brincidofovir via 2-hour IV infusion with 0 [2× sodium phosphate buffer solution (400 mM, pH 8.0±0.04)], 1 or 15 mg/kg on Days 1, 4 and 7. The dose volume was 10 mL/kg/hr for all groups. At the end of the Phase 2 treatment period, all animals were euthanized and necropsied. Phase 2 satellite animals (3/sex/Group 1 and 6/sex/Group 2-3) were similarly dosed and blood samples collected on Days 1 and 7 for toxicokinetic analysis of brincidofovir and one of its metabolites, cidofovir.
For Phase 2 (DRF), the test and control articles were administered, via intravenous 2-hour IV infusion to rats on Days 1, 4, and 7.
During Phase 2, each animal received brincidofovir administrations via intravenous infusion (2-hours) on Days 1, 4 and 7. Animals were maintained on sterile saline at a rate of 0.5 mL/hour between doses. Catheters were tied off after the completion of dose administration on Day 7 (a knot was placed in the catheter and the catheter was receded under the skin) and jackets were removed.
Blood obtained via the orbital sinus (retrobulbar venous plexus) as a terminal procedure under light isoflurane anesthesia was used to analyze hematology and clinical chemistry parameters for all animals at termination of dosing. Animals were fasted overnight prior to blood collection. Animals were not allowed to recover from anesthesia after blood collection.
Blood samples (approximately 0.25 mL) were collected into tubes containing K2EDTA anticoagulant and analyzed for the following using a Siemens ADVIA 120 Hematology Analyzer: Hemoglobin concentration (HGB); Hematocrit (HCT); Erythrocyte count (RBC); Platelet count (PLT); Mean corpuscular volume (MCV); Mean corpuscular hemoglobin (MCH); Mean corpuscular hemoglobin concentration (MCHC); Red cell distribution width (RDW); Total leukocyte count (WBC); Reticulocyte count (RETIC); Differential leukocyte count (Manual differential leukocyte counts were performed for verification and absolute values were calculated if necessary); Neutrophils (ANEU); Lymphocytes (ALYM); Eosinophils (AEOS); Basophils (ABASO); Monocytes (AMONO); Large unstained cells (ALUC);
Blood samples (approximately 1 mL) were collected into tubes with no anticoagulant, allowed to clot, centrifuged to obtain serum and analyzed for the following using a Siemens ADVIA 1800 Chemistry Analyzer: Aspartate aminotransferase (AST) (Kinetic—Modified Bergmeyer); Alanine aminotransferase (ALT) (Kinetic—Modified Bergmeyer); Alkaline phosphatase (ALKP) (Kinetic—Tietz AMP Buffer); Blood urea nitrogen (BUN) (Enzymatic Roch-Ramek with Urease); Creatinine (CREAT) (Jaffe Picric Acid in Alkaline Medium); Glucose (GLU) (Glucose Hexokinase II Method); Cholesterol (CHOL) (Enzymatic esterase/oxidase Trinder Endpoint); Triglycerides (TRIG) (Fossati Three Step Enzymatic—Trinder Endpoint); Total protein (TP) (Biuret Technique); Albumin (ALB) (Bromocresol Green Method); Total bilirubin (TBILI) (Oxidation with Vandate); Sodium (NA^+) (Ion Selective Electrode); Potassium (K^+) (Ion Selective Electrode); Chloride (Cr) (Ion Selective Electrode); Calcium (Ca′) (Michaylova & Ilkova, Arsenazo III); Inorganic phosphorus (PHOS) (Phosphomolybdate—UV Method).
Complete macroscopic examinations were performed on all Phase 2 main study animals. The macroscopic examination included examination of the external surface and all orifices; the external surfaces of the brain and spinal cord; the organs and tissues of the cranial, thoracic, abdominal and pelvic cavities and neck; and the remainder of the carcass for the presence of macroscopic morphologic abnormalities. Animals were discarded after examination; no tissues were collected or preserved.

[3] = cited from earlier work
[4] = 100 mg, 100 mg Oral Tablet, N = 52, geometric mean
[5] = 200 mg, 200 mg Oral Tablet, N = 15, geometric mean
[6] = 200 mg, 200 mg Oral Tablet, N = 63, geometric mean
[7] = 350 mg, 350 mg Oral Tablet, N = 70, geometric mean

SMILES: CCCCCCCCCCCCCCCCOCCCOP(=O)(O)CO[C@H](CO)Cn1ccc(N)nc1=O [Brincidofovir]
- Brincidofovir concentration with in vitro evidence of hemolysis (rat whole blood): above 0.75 mg/mL
- Hemolysis classification (rat whole blood; 0.2 mg/mL): non-hemolytic (Formulations with a hemolysis value of <10% are considered to be non-hemolytic)
- Calculated % hemolysis (rat whole blood; 0.5 mg/mL ([…])): 2.4%
- Calculated % hemolysis (rat whole blood; 1.6 mg/mL ([…])): 13.0%
- Hemolysis classification (rat whole blood; 0.5 and 1.6 mg/mL): not considered a hemolytic risk
- Estimated % Hemolysis (rat whole blood; Tube 1B: Test Item (0.5 mg/mL) + rat whole blood): 2.4%
- Estimated % Hemolysis (rat whole blood; Tube 1C: Test Item (1.6 mg/mL) + rat whole blood): 13.0%
- Mean HgB Concentration (rat whole blood; Tube 2A: Test Item (0.2 mg/mL) + saline): 0.0 g/dL
- Mean HgB Concentration (rat whole blood; Tube 2B: Test Item (0.5 mg/mL) + saline): 0.0 g/dL
- Mean HgB Concentration (rat whole blood; Tube 2C: Test Item (1.6 mg/mL) + saline): 0.0 g/dL
- half-life ([1]; 100 mg Oral Tablet, N = 52, geometric mean): 7.62 h
- half-life ([1]; 200 mg Oral Tablet, N = 15, geometric mean): 12 h
- AUC(0-inf) [1, 4]: 1380 ng·h/mL
- Cmax [1, 4]: 258 ng/mL
- AUC(0-inf) [1, 5]: 3310 ng·h/mL
- Cmax [1, 5]: 622 ng/mL
- AUC(0-inf) [1, 6]: 3740 ng·h/mL
- Cmax [1, 6]: 802 ng/mL
- AUC(0-inf) [1, 7]: 6940 ng·h/mL
- Cmax [1, 7]: 1480 ng/mL
- Tolerability ([2]; 1 and 15 mg/kg/day, Days 1, 4 and 7): well tolerated
- Clinical signs ([2]; 1 or 15 mg/kg/day): did not result in any brincidofovir-related clinical signs
- Decrease in red cell mass vs controls (to) ([2]; end of 7-day dosing phase): −4.2%
- Change in reticulocytes vs controls ([2]; females, 15 mg/kg): −30%
- Change in urea (BUN) vs controls ([2]; females, 15 mg/kg): +29%
- Change in total calcium vs controls ([2]; females, ≧1 mg/kg): +4.9%
- Change in MCHC vs controls ([2]; males, 15 mg/kg): +2.1%
- Change in total calcium vs controls ([2]; males, 15 mg/kg): +3.8%
- Change in reticulocytes vs controls ([2]; males, 15 mg/kg, Days 1, 4, 7): −33%
- Instance of diarrhea ([3]; single oral dose 100 mg and 200 mg): about 5%
- Instance of diarrhea ([3]; single oral dose 350 mg): about 20%
